Experiments:
[1] = ethylene oxide sterilization of coated ePTFE substrates, SEM visualization; type: physicochemical; details: conditioning about 24 hr, EtO dwell about 22 hr, 64° C., aeration about 12 hrs; samples of Examples 6 and 7
Method: Representative samples of Examples 6 and 7 were exposed to ethylene oxide sterilization, under conditions of conditioning for about 24 hr, an EtO gas dwell time of about 22 hr, a set point temperature of 64° C., and an aeration time of about 12 hrs. The samples were then visualized with SEM.

[2] = system: carotid artery endothelial layer; assay: ex vivo transfer of drug crystals from an ePTFE substrate to a vascular tissue; set-up: species or system swine; details: 60 sec compression at 5.4 atm
Method: Substrates of ePTFE of Examples 1 and 2 were coated with paclitaxel (10 mg/ml) or paclitaxel/urea (1:1 mass ratio; 10 mg/ml paclitaxel) according to Example 4. The substrates were examined under SEM to confirm the presence of high aspect paclitaxel crystal habits embedded and oriented in the ePTFE microstructure.
A freshly harvested carotid artery from >2 yr old swine (Animal Technologies Inc., Tyler TX) was slit axially using a scalpel blade, cut lengthwise into portions, everted, and the portions adhered to a glass microscope slide using cyanoacrylate adhesive (Loctite), luminal aspect up. Tissue portions were kept wet using phosphate-buffered saline until use.
The glass microscope slide containing the artery portion was gently placed, tissue side down, upon the coated ePTFE substrate, to expose the endothelial layer to the paclitaxel crystals. The endothelial layer was compressed at about 5.4 atm against the coated ePTFE substrate for 60 sec. The glass microscope slide containing the artery portion was then examined under SEM.

CC(=O)O[C@H]1C(=O)[C@@]2(C)[C@H]([C@H](OC(=O)c3ccccc3)[C@]3(O)C[C@H](OC(=O)[C@H](O)[C@@H](NC(=O)c4ccccc4)c4ccccc4)C(C)=C1C3(C)C)[C@]1(OC(C)=O)CO[C@@H]1C[C@@H]2O [paclitaxel]
acicular habits, geometry, penetration into ePTFE and angles of projection after ethylene oxide sterilization [1]: unaffected
high aspect ratio of the crystals after compression (mechanical stability and strength) [2]: intact

Source: patent US12458732B2, “Porous composites with high-aspect ratio crystals” (W. L. Gore & Associates, Inc., priority 2013, dated 2025)
